Source: patent publication US20240216444A1, “DESIGNED BACTERIAL COMPOSITIONS” (Seres Therapeutics, Inc., priority 2015, published 2024)

Experiments:
[1] = SCFA profile of bacterial culture supernatants by GC-MS; details: for propionate production: GC-MS, fucose as carbon source
Text: The same bacterial culture supernatants used for HDAC inhibition assays described supra were submitted to GC-MS analysis to determine which SCFAs underlie the observed inhibition of HDAC. The method employed (MSOmics, Denmark) measures formate, acetate, propionate, butyrate, isobutyrate (2-methyl-propionate), isovalerate (3-methyl-butyrate), valerate (pentanoate), 4-methyl-pentanoate, caproate (hexanoate), and heptanoate. […] Numbers in Table 11 indicate detected SCFA concentration. B=butyrate; P=propionate; IB=isobutyrate, and IV=isovalerate.

[2] = test system: C. difficile carbon sources; assay: Carbon source utilization, 87 carbon sources in three base media, OD600 and acid production (Example 3B); assay type: cell-based; set-up: key: “+” and “w” refer to “positive” and “weak” utilization of the carbon source, respectively; “+” and “w” refer to “positive” and “weak” utilization of the carbon source, respectively; details: for utilization of carbon source NAG: NAG (N-acetylglucosamine)
Text: Three C. difficile strains and 12 non-C. difficile bacterial strains were profiled using a panel of carbon sources. As used herein, unless otherwise indicated, carbon sources includes all sources tested as growth substrates in the experiments herein. The three C. difficile strains were Clostridium difficile ATCC 9689, Clostridium difficile ATCC 43593, and Clostridium difficile ATCC 43255, all of which are available from the American Type Culture Collection (ATCC).
Growth of the strains was tested on 87 different carbon sources in a 96-well plate format. The panel contained 34 carbon sources reported to be utilized by C. difficile in the literature (Hafiz and Oakley. 1976 J Med Microbiol 9:129-36; Wilson and Perini. 1988 Infection and Immunity 56:2610-14; Bergey and Holt. Bergey's Manual of Determinative Bacteriology. Baltimore: Williams & Wilkins, 1994; Sebaihia et al. 2006 Nature Genetics 38:779-786) including amino acids, mono-, di-, tri- and polysaccharides, glucoside and sugar alcohols. Carbon sources were added at 0.5% into three different base media (Base medium 1 SSNC composition: beef extract 1 g/L, yeast extract 2 g/L, bacto soytone 6 g/L, NaCl 4 g/L, KH2PO4 5.44 g/L, MgSO4 2 mM, CaCl2 1 mM, MnCl2 0.1 mM, cysteine hydrochloride 0.25 g/L, hemin 10 mg/L, menadione 1 mg/L, MOPS 6.3 g/L, pH 7; Base medium 2 SPOSCR composition: beef extract 1 g/L, yeast extract 2 g/L, bacto soytone 6 g/L, NaCl 4 g/L, KH2PO4 5.44 g/L, MgSO4 2 mM, CaCl2) 1 mM, MnCl2 0.1 mM, cysteine hydrochloride 0.25 g/L, hemin 10 mg/L, menadione 1 mg/L, MOPS 8.4 g/L, NaHCO3 0.4%, pH 7; Base medium 3 YCFA: casitone 10 g/L, yeast extract 2.5 g/L, cysteine hydrochloride 1 g/L, hemin 10 mg/L, ATCC vitamin solution 10 mL/L, ATCC trace element solution 10 mL/L, K2HPO4 0.45 g/L, KH2PO4 0.45 g/L, (NH4)2SO4 0.9 g/L, MgSO4×7H2O 90 mg/L, CaCl2) 90 mg/L, acetic acid 33 mM, propionic acid 9 mM, isobutyric acid 1 mM, isovaleric acid 1 mM, valeric acid 1 mM, pH 7).
Positive growth was scored by measuring optical density at 600 nm and comparing it to growth in base medium without an added carbon source. For two, base media acid production was also scored by measuring optical density at 558 nm of pH-indicator phenol red mixed with spent medium from each culture.

[3] = test system: HSDH activity (7-, 3- or 12-hydroxyl groups) on cholic, chenodeoxycholic, deoxycholic and lithocholic acid; assay: LC-MS screen for hydroxysteroid dehydrogenase (HSDH) activity; assay type: biochemical; details: LC-MS
[4] = test system: 7α-dehydroxylation of cholic acid and chenodeoxycholic acid; assay: LC-MS screen for 7α-dehydroxylation (7α-OH) activity; assay type: biochemical; details: LC-MS
[5] = test system: HDAC enzymes (HeLa nuclear extract); assay: HDAC inhibition activity in supernatants of cultures grown in different carbon sources; details: 25% HDAC inhibition as cut off
Procedure: To determine whether the HDAC inhibition was affected by the type and level of carbon source available to a bacterial species, HDAC inhibition by supernatants derived from a selection of bacterial species used in DBCs was determined. In these experiments, bacteria were grown in a variety of carbon sources including mono-, di-, polysaccharides, and porcine mucine. Briefly, 600 μL bacterial cultures in peptone/yeast extract medium (PY) supplemented with 0.5% of the selected carbon sources were inoculated in 96 deep well plates, grown for 4 days, then the microbial cells were pelleted by centrifugation, and 15 μL of the culture medium (supernatant) was used for the HDAC assay with HeLa nuclear extract as described above. Because HDAC activity is reduced at low pH (Latham et al. 2012 Nucl Acid Res 40:4794-803) and the microbial cultures had pH as low as 5, to ensure that the final pH of the assay was not reduced by the addition of supernatant, 10 μL of a 1M Tris pH 8 solution was added per well to bring the final Tris buffer concentration to 75 mM. Thus, assays were performed with 15 μL supernatant, 10 μL 1M Tris pH 8, 25 μL of assay buffer and 50 μL of diluted HeLa nuclear extract, which were preincubated for 30 minutes prior to the addition of developing reagent. Luminescence was measured after 30 minutes.

[6] = test system: bile salt hydrolase (BSH) activity on conjugated bile acids; assay: LC-MS screen for bile salt hydrolase (BSH) activity; details: for BSH gCA: substrate gCA; for BSH gCDCA: substrate gCDCA; for BSH t-aMCA: substrate t-aMCA; for BSH t-bMCA: substrate t-bMCA; for BSH tCA: substrate tCA; for BSH tCDCA: substrate tCDCA
Procedure: To conduct the assay, briefly, bacteria were grown on permissive agar media plates for 24 to 48 hours to generate sufficient biomass to carry out assays. The bacterial lawns were resuspended in PBS to create a homogenous suspension that was then used for the BSH assay. To assay for BSH activity, bacterial suspensions were incubated with two separate mixtures of four distinct conjugated bile acids, each at concentration of 150 μg/ml, for 4 hours at 37° C. under anaerobic conditions. The reaction mixture was then extracted with an equal volume of acetonitrile, spun down to pellet bacteria and the supernatant filtered through a 0.2 μM filter to generate a sample for LC-MS analysis. Bile acids were determined using an Agilent 1260 HPLC coupled to a Bruker Compact qTOF MS. Samples were run on a bidentate C18 column using an acetonitrile:water buffer system to separate bile acids which were then ionized in negative mode and identified using a qTOF-MS. BSH activity was determined by the formation of deconjugated bile acid products that were verified by comparison to known standards and quantified, if necessary, using standard curves.

[7] = test system: bile salt hydrolase (BSH) activity on conjugated bile acids (gCA, tCA, gCDCA, tCDCA); assay: Bile salt hydrolase (BSH) activity screen using TLC; assay type: biochemical

In the case of Clostridium bolteae, the propionate production [1] is reported as “produced propionate but only when supplied with fucose as a carbon source”, the “utilization of carbon source Citrus pectin” value [2] is reported as “+” and the “utilization of carbon source NAG” value [2] is reported as “+”. The “utilization of carbon source cysteine” value [2] was “w”, the “utilization of carbon source fructose” value [2] was “+” and the “utilization of carbon source glucose” value [2] was “+”. The “utilization of carbon source mannose” value [2] was “+”, the “utilization of carbon source melezitose” value ([2]; melezitose) was “+” and the “utilization of carbon source oxalate” value [2] was “+”. The “utilization of carbon source propanediol” value [2] was “+”, the “utilization of carbon source rhamnose” value ([2]; rhamnose) was “+” and the “utilization of carbon source ribose” value [2] was “+”. For the same substance, the “utilization of carbon source serine” value [2] was “w”, the “utilization of carbon source sialic acid” value [2] was “+” and the “utilization of carbon source sucrose” value [2] was “+”. The “utilization of carbon source trehalose” value [2] was “+”, the “utilization of carbon source tryptophan” value [2] was “w” and the “utilization of carbon source xylose” value ([2]; xylose) was “+”. The “HSDH 3a” value [3] was “+ (‘+’ indicates greater than 50-fold increase in levels of product bile acid, suggesting strong activity)”, the “HSDH 7a” value [3] was “−” and the “HSDH 12a” value [3] was “−”. The “7a Dehydrox CA” value ([4]; substrate CA) was “−”, the “7a Dehydrox CDCA” value ([4]; substrate CDCA) was “−” and the “HDAC inhibition when alternative nutrient sources are tested” value (“HDAC inhibition” for short) [5] was “positive”. For the same substance, the “BSH gCA” value [6] was “+ (‘+’ indicates greater than 50-fold increase in levels of product bile acid, suggesting strong activity)”, the “BSH gCDCA” value [6] was “+ (‘+’ indicates greater than 50-fold increase in levels of product bile acid, suggesting strong activity)” and the “BSH t-aMCA” value [6] was “+ (‘+’ indicates greater than 50-fold increase in levels of product bile acid, suggesting strong activity)”. For the same substance, the “BSH t-bMCA” value [6] was “+ (‘+’ indicates greater than 50-fold increase in levels of product bile acid, suggesting strong activity)”, the “BSH tCA” value [6] was “+ (‘+’ indicates greater than 50-fold increase in levels of product bile acid, suggesting strong activity)” and the “BSH tCDCA” value [6] was “+ (‘+’ indicates greater than 50-fold increase in levels of product bile acid, suggesting strong activity)”.

With Clostridium disporicum the propionate production [1] was “produced propionate but only when supplied with fucose as a carbon source”, the “utilization of carbon source Apple pectin” value ([2]; Apple pectin) was “w” and the “utilization of carbon source Citrus pectin” value [2] was “+”. The “utilization of carbon source NAG” value [2] was “+”, the “utilization of carbon source arbutin” value ([2]; arbutin) was “+” and the “utilization of carbon source cellobiose” value ([2]; cellobiose) was “+”. For the same substance, the “utilization of carbon source cyclodextrin” value ([2]; cyclodextrin) was “+”, the “utilization of carbon source cysteine” value [2] was “w” and the “utilization of carbon source esculin” value ([2]; esculin) was “+”. The “utilization of carbon source fructose” value [2] was “+”, the “utilization of carbon source glucose” value [2] was “+” and the “utilization of carbon source glutamine” value ([2]; glutamine) was “w”. For the same substance, the “utilization of carbon source glycogen” value [2] was “+”, the “utilization of carbon source mannose” value [2] was “+” and the “utilization of carbon source oxalate” value [2] was “w”. For the same substance, the “utilization of carbon source salicin” value ([2]; salicin) was “+”, the “utilization of carbon source serine” value [2] was “w” and the “utilization of carbon source starch” value ([2]; starch) was “+”. For the same substance, the “utilization of carbon source sucrose” value [2] was “+”, the “utilization of carbon source threonine” value [2] was “w” and the “utilization of carbon source trehalose” value [2] was “+”. For the same substance, the “HSDH 3a” value [3] was “−”, the “HSDH 7a” value [3] was “+ (‘+’ indicates greater than 50-fold increase in levels of product bile acid, suggesting strong activity)” and the “HSDH 12a” value [3] was “+/− (‘+/−’ indicates ≤50-fold change in product bile acid levels, suggesting weak activity)”. The “HSDH 3a” value ([3]; 3a-HSDH) was “−”, the “HSDH 7a” value ([3]; 7a-HSDH) was “+ (‘+’ indicates greater than 50-fold increase in levels of product bile acid, suggesting strong activity)” and the “HSDH 12a” value ([3]; 12a-HSDH) was “−”. For the same substance, the “7a Dehydrox CA” value ([4]; substrate CA) was “−”, the “7a Dehydrox CDCA” value ([4]; substrate CDCA) was “−” and the “7a Dehydrox CDCA” value ([4]; substrate chenodeoxycholic acid) was “−”. For the same substance, the “7a Dehydrox CA” value ([4]; substrate cholic acid) was “−”, the “HDAC inhibition” value [5] was “positive” and the “BSH gCA” value [6] was “−”. For the same substance, the “BSH gCDCA” value [6] was “+/− (‘+/−’ indicates ≤50-fold change in product bile acid levels, suggesting weak activity)”, the “BSH t-aMCA” value [6] was “+ (‘+’ indicates greater than 50-fold increase in levels of product bile acid, suggesting strong activity)” and the “BSH t-bMCA” value [6] was “+ (‘+’ indicates greater than 50-fold increase in levels of product bile acid, suggesting strong activity)”. The “BSH tCA” value [6] was “+/− (‘+/−’ indicates ≤50-fold change in product bile acid levels, suggesting weak activity)” and the “BSH tCDCA” value [6] was “+ (‘+’ indicates greater than 50-fold increase in levels of product bile acid, suggesting strong activity)”.

With Clostridium glycolicum the SCFAs produced ([1]; GC-MS of culture supernatants) was “produced isovalerate, isobutyrate and propionate”, the indole test (12 strains, eight carbon sources) was “positive” and the “colour of culture in indole test” value (F. plautii: each of the 8 carbon sources, C. glycolicum: all C-sources except glucose, pectin, FOS/inulin) was “turned red”. The “utilization of carbon source Citrus pectin” value [2] was “+”, the “utilization of carbon source NAG” value [2] was “+” and the “utilization of carbon source alanine” value ([2]; alanine) was “w”. For the same substance, the “utilization of carbon source arginie” value ([2]; arginie) was “w”, the “utilization of carbon source aspartic acid” value ([2]; aspartic acid) was “+” and the “utilization of carbon source formate” value ([2]; formate) was “+”. For the same substance, the “utilization of carbon source fructose” value [2] was “+”, the “utilization of carbon source glucose” value [2] was “+” and the “utilization of carbon source glycogen” value [2] was “w”. For the same substance, the “utilization of carbon source guar” value ([2]; guar) was “w”, the “utilization of carbon source isoleucine” value ([2]; isoleucine) was “+” and the “utilization of carbon source leucine” value ([2]; leucine) was “+”. For the same substance, the “utilization of carbon source ornithine” value ([2]; ornithine) was “w”, the “utilization of carbon source polygalacturonate” value ([2]; polygalacturonate) was “+” and the “utilization of carbon source propanediol” value [2] was “w”. The “utilization of carbon source ribose” value [2] was “+”, the “utilization of carbon source serine” value [2] was “+” and the “utilization of carbon source sialic acid” value [2] was “w”. For the same substance, the “utilization of carbon source threonine” value [2] was “+”, the “utilization of carbon source tryptophan” value [2] was “+” and the “utilization of carbon source valine” value ([2]; valine) was “+”. For the same substance, the “utilization of carbon source α-ketoglutarate” value ([2]; α-ketoglutarate) was “+”, the “HSDH 3a” value [3] was “+ (‘+’ indicates greater than 50-fold increase in levels of product bile acid, suggesting strong activity)” and the “HSDH 7a” value [3] was “+ (‘+’ indicates greater than 50-fold increase in levels of product bile acid, suggesting strong activity)”. The “HSDH 12a” value [3] was “−”, the “7a Dehydrox CA” value ([4]; substrate CA) was “−” and the “7a Dehydrox CDCA” value ([4]; substrate CDCA) was “−”. The “HDAC inhibition” value [5] was “positive”, the “BSH gCA” value [6] was “+ (‘+’ indicates greater than 50-fold increase in levels of product bile acid, suggesting strong activity)” and the “BSH gCDCA” value [6] was “+ (‘+’ indicates greater than 50-fold increase in levels of product bile acid, suggesting strong activity)”. The “BSH t-aMCA” value [6] was “+ (‘+’ indicates greater than 50-fold increase in levels of product bile acid, suggesting strong activity)”, the “BSH t-bMCA” value [6] was “+ (‘+’ indicates greater than 50-fold increase in levels of product bile acid, suggesting strong activity)” and the “BSH tCA” value [6] was “+ (‘+’ indicates greater than 50-fold increase in levels of product bile acid, suggesting strong activity)”. The “BSH tCDCA” value [6] was “+ (‘+’ indicates greater than 50-fold increase in levels of product bile acid, suggesting strong activity)” and the “BSH activity on gCDCA by TLC” value [7] was “no BSH activity”.
